Results reported in patent US20060099220A1, “Antibodies against and methods for producing vaccines for respiratory syncytial virus” (MEDIMMUNE, INC., priority 2004, published 2006).
“And” between values parts separate entries of the source, which are not always exact repeats. Equal values may be shown once. Where no end group is shown, it is not given here.

B1: Numax ™: enhanced potency RSV-specific monoclonal antibody derived by in vitro affinity maturation of palivizumab (antibody, listed as Chimaera sp., V domains shown)
VH: QVTLRESGPALVKPTQTLTLTCTFSGFSLSTAGMSVGWIRQPPGKALEWLADIWWDDKKHYNPSLKDRLTISKDTSKNQVVLKVTNMDPADTATYYCARDMIFNFYFDVWGQGTTVTVSS
VL: DIQMTQSPSTLSASVGDRVTITCSASSRVGYMHWYQQKPGKAPKLLIYDTFFLDSGVPSRFSGSGSGTEFTLTISSLQPDDFATYYCFQGSGYPFTFGGGTKVEIK

How the values were obtained:
[1] = tested on: MEDI-524 Mab; assay: Isothermal titration calorimetry (ITC) of F peptides with MEDI-524 Mab; type: binding; conditions: 25 mM His, pH 6 at 10° C.
Description: To evaluate the binding properties of the wild-type peptide (SEQ ID NO.28) to Numax™/MEDI-524 by using the ITC technique. The MEDI-524 Mab was titrated with SEQ ID NO.28 in the basis buffer 25 mM His, pH 6 at 10° C. SEQ ID NO.28: (MW=2732.14, no W, Y, or C). A working solution of 55 μM was prepared by diluting 30 μL of a 5 mg/mL peptide solution with 970 μL of 25 mM His, pH 6 buffer to be used for the ITC titrations. A 1.15 μM (0.1706 mg/ml) working solution of MEDI-524 was used for the experiments (MW 148400, A280=1.47).
For this set of experiments, […] (1.16 μM-148.4 KDa) of MEDI-524 Mab and 0.088 mg/mL (1.88 μM-46.3 KDa) of MEDI-524 Fab, both in 25 mM His, pH 6.07 were used. On the other hand, 250 μL of 1 mg/mL of the different peptides dissolved in H2O, were provided by ABC. The peptides were then diluted into the appropriate volume of buffer to give a final concentration of 50 μM. The ITC experiments were run at 18° C. with the macromolecule (Mab or Fab) in the cell, by doing ˜26 injections of 10 μL of peptides, spaced 360 sec with constant stirring. The data fitting was accomplished by subtracting the average value of the few last injections as the buffer and unspecific heat of dilution contributions. […]

[2] = tested on: RSV MARM B7 (F protein K272T); assay: Microneutralization assay of MARM B7; conditions: selection Synagis ®
[3] = tested on: RSV MARMs #6 and NuMARM3 (F protein K272E); assay: Microneutralization assay of K272E MARMs; conditions: for Neutralization of RSV: residue 272 altered from lysine (K) to glutamic acid (E)
[4] = tested on: RSV MARM #13 (F protein N262K, K272Q); assay: Microneutralization assay of MARM #13; conditions: MARM #13, N262K and K272Q, selection Synagis ® then A4b4
[5] = tested on: RSV MARM B1 (F protein K272N); assay: Microneutralization assay of monoclonal antibody resistant mutant (MARM) B1; conditions: selection Synagis ®
[6] = tested on: RSV MARM #10 (F protein K272E, N276Y); assay: Microneutralization assay of MARM #10; conditions: MARM #10, K272E and N276Y, selection A4b4
[7] = tested on: RSV MARM B2 (F protein K272M); assay: Microneutralization assay of MARM B2; conditions: selection Synagis ®
[8] = tested on: RSV MARM B9 (F protein K272Q); assay: Microneutralization assay of MARM B9; conditions: selection Synagis ®
[9] = target: T1, MEDI-524 Fab (Homo sapiens, UniProt P01834+P01857); assay: Isothermal titration calorimetry (ITC) of F peptides with MEDI-524 Fab; type: binding; conditions: at 18° C., 25 mM His, pH 6.07
T1 construct: 0.088 mg/mL (1.88 μM-46.3 KDa) of MEDI-524 Fab
Description: For this set of experiments, […] (1.16 μM-148.4 KDa) of MEDI-524 Mab and 0.088 mg/mL (1.88 μM-46.3 KDa) of MEDI-524 Fab, both in 25 mM His, pH 6.07 were used. On the other hand, 250 μL of 1 mg/mL of the different peptides dissolved in H2O, were provided by ABC. The peptides were then diluted into the appropriate volume of buffer to give a final concentration of 50 μM. The ITC experiments were run at 18° C. with the macromolecule (Mab or Fab) in the cell, by doing ˜26 injections of 10 μL of peptides, spaced 360 sec with constant stirring. The data fitting was accomplished by subtracting the average value of the few last injections as the buffer and unspecific heat of dilution contributions. […] A note apart is the fact that the observed binding capacity (N) increases with the length of the peptide, indicating possibly an extra conformational factor in the binding event. The entropic contribution: For the peptides SEQ ID NOs.24 and 26, the entropic factor seems to be similar; the extra amino acids at the end of the N-terminal seems not to affect greatly the binding parameters. On the other hand, the elongation at the C-terminal seems to decrease slightly the binding enthalpy, the binding constant, as well as the entropic factor. […] The binding constant seems to be smaller (weaker) for both 30-mer peptides respect to the 26-mer.

[10] = target: Numax™ (Homo sapiens, UniProt P01834+P01857); assay: Biacore kinetic analysis of F peptides on captured Numax™; type: binding; conditions: F peptide 100 nM over captured Numax™, Biacore 3000
Description: All studies were performed using Sensor Chip CM5 (Biacore AB, Uppsala, Sweden) which contains a carboxymethyl (CM) dextran matrix and a Biacore® 3000 surface plasmon resonance (SPR) biosensor (Biacore AB, Uppsala, Sweden).
Numax™ was captured via a high-affinity interaction between the Fc portion of Numax™ and a goat anti-human IgG(Fc) (KPL, Inc., Gaithersburg, Md.). Goat anti-human IgG(Fc) was covalently attached to the CM dextran matrix using amine coupling chemistry. Two anti-human IgG(Fc)-specific surfaces were created. Numax™ was diluted to 10.9 μg/mL with HBS-EP and flowed for 1 min. across one of the anti-human IgG (Fc) surfaces at a flow rate of 5 μL/min. The other anti-human IgG(Fc) surface was used as a reference surface. F peptide was prepared by dilution in HBS-EP (0.01 M Hepes pH 7.4, 0.15 M NaCl, 3 mM EDTA, 0.005% surfactant P20) to a final concentration of 100 nM. F peptide was injected for 1 min. in a serial-flow manner across the reference surface and the Numax™-specific surface. Dissociation of bound F peptide was monitored for 2 min in the presence of HBS-EP. After this dissociation period, Numax™ and F peptide were removed with a 30-sec injection of 10 mM glycine pH 1.7 (Biacore AB, Uppsala, Sweden). Because of the removal of Numax™, it was necessary to create a new Numax™-specific surface prior to the injection of each F peptide.

[11] = target: Numax™ (MEDI-524) (Homo sapiens, UniProt P01834+P01857); assay: Binding ELISA of F-peptides; conditions: peptide coated on plate, MEDI-524 detected with anti-human IgG-HRP
Description: Based in part upon the results of the MARM analysis above, F peptides were synthesized (done by AnaSpec, Inc. San Jose, Calif.). Each well of the assay plate was coated with […] of […] of a particular soluble RSV F-Peptide overnight at 2-8° C. After the plate was aspirated and washed with PBS/0.05% Tween-20 buffer, it was blocked by incubating with PBS/0.05% Tween-20/0.5% BSA buffer for one hour at ambient temperature. The plate was washed and MEDI-524 standard curve samples, test samples, MEDI-524 Reference Standard, and negative control were added to the washed plate. Following a one-hour incubation at ambient temperature, the plate was washed, and […] of a goat anti-human IgG-HRP (horseradish peroxidase) at 1:16,000 dilution was added to the plate. After washing, […] of 3,3′,5,5′-tetramethylbenzidine (TMB) substrate was then added to the plate and incubated at ambient temperature protected from light for 10 minutes. The enzymatic reaction was stopped by adding […] of 2N H2SO4, and the absorbance at 450 nm was measured using a microplate reader. […] After meeting all system suitability requirements, as well as meeting the criteria of the parallelism test, the ED50 ratio of the test sample to Reference Standard was calculated, and the results were expressed as a percentage of the Reference Standard binding activity. […]

[12] = tested on: RSV with F protein mutations at position 272 other than K272E; assay: Microneutralization assay of MARMs, other mutations at position 272; conditions: all other mutations indicated at position 272
[13] = target: RSV F protein; assay: BIAcore analysis of Numax Ref. Std.; type: binding; conditions: Numax reference standard
Text: BIAcore analysis can measure the kinetic interactions of anti-RSV antibodies with RSV F peptides by surface plasmon resonance using a BIAcore 1000, 2000, or 3000 instrument (Biacore, Uppsala, Sweden). Purified recombinant, C-terminally truncated F protein was covalently coupled to a (1-ethyl-3-[3-dimethylaminopropyl]carbodiimide hydrochloride)/N-hydroxysuccinimide-activated CM5 sensor chip at a low protein density (see Johnsson et al. (1991) Anal. Biochem. 198, 268-277). The unreacted active ester groups were blocked with 1 M ethanolamine. For use as a reference, when the BIAcore 2000 or 3000 instrument was used, a blank surface, containing no antigen, was prepared under identical immobilization conditions. To minimize binding variations caused by different lots of F proteins, most of the antibodies were measured against the same lot of F protein. In several cases when different lots of F proteins were used, their binding to an anti-RSV antibody was used as a reference to make sure that these lots had similar binding characteristics to the lot that is used mainly. A serial 2-fold dilution series of purified antibodies, ranging from 0.2 to 100 nm in HBS/Tween 20 buffer (BIAcore), was injected over the F-protein and reference cell surfaces, which were connected in series. In each measurement, the residual antibody was removed from the sensor chip by a brief pulse of 100 mM HCl. The binding curves were globally fitted to a 1:1 Langmuir binding model using the BIAevaluation program. This algorithm calculates both kon and koff. The apparent equilibrium dissociation constant, Kd, was deduced as the ratio of the two rate constants, koff/kon.

[14] = MARM NuMARM3, K272E, selection Numax ™

Sequence of Numax™ (P01857 with tags, fused parts or gaps limits assumed, other chains not shown): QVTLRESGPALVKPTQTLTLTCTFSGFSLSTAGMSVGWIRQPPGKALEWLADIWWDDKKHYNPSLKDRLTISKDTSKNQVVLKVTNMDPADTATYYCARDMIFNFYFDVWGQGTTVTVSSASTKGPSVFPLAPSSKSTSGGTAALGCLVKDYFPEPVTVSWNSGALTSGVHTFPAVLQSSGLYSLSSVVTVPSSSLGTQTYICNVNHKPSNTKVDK
T1 sequence (P01857 with tags, fused parts or gaps limits assumed, other chains not shown): as above
Sequence of Numax™ (MEDI-524) (P01857 with tags, fused parts or gaps limits assumed, other chains not shown): as above

Row | Molecule | Neutraliz by antibody ? [2] | Neutraliz by antibody ? ([3]; MARM #6, K272E, selection A4b4) | Neutraliz by antibody ? [3, 14] | Neutralization of RSV [3] | Neutraliz by antibody ? [4] | Neutraliz by antibody ? [5] | Neutraliz by antibody ? [6] | Neutraliz by antibody ? [7] | Neutraliz by antibody ? [8] | Ka (association constant) [9] [M⁻¹] | ΔHbinding [9] [kcal/mol] | ΔSbinding [9] | ka [10] | kd [10] | Kd [10] | further results
1 | NSELLSLINDMPITNDQKKLMSNN-NH2 [SEQ ID NO.28] | – | – | – | – | – | – | – | – | – | – | – | – | – | – | – | binding strength compared to the SEQ ID NO.24 peptide [1]: ~3 orders of magnitude lower
2 | Synagis ®: humanized RSV monoclonal antibody directed against the F glycoprotein of RSV [reference compound] | No | No | No | longer neutralized RSV | No | No | No | No | No | – | – | – | – | – | – | Neutraliz by antibody ? ([4]; listed as Synagis®): lost their ability to neutralize
3 | NSELLSLIHDMPITNDQKKLMSNNVQIVRQ-NH2 (C-terminus assumed) [SEQ ID NO: 25] | – | – | – | – | – | – | – | – | – | 6.5e+06 | -10.4 | −4.7 | 2.50E+05 and 3.62E+05 | 1.81E−03 and 1.97E−03 | 7.23 nM and 5.44 nM | –
4 | STYMLTNSELLSLIHDMPITNDQKKLMSNN-NH2 (C-terminus assumed) [SEQ ID NO: 26] | – | – | – | – | – | – | – | – | – | 7.1e+06 | -11.4 | −8.1 | 2.43E+05 | 5.52E−03 | 22.7 nM | –
5 | F peptide with a histidine at position 262: F peptide with histidine at position 262 tested in the Numax binding ELISA; probably SEQ ID No. 13 (NSELLSLIHDMPITNDQKKLMSNN; Derived from respiratory syncytial virus sequence) | – | – | – | – | – | – | – | – | – | – | – | – | – | – | – | Binding to Numax™ compared with wild-type F protein epitope (SEQ ID NO.1) [11]: more tightly
6 | B1 | Yes | No | No | longer neutralized RSV | No | Yes | No | Yes | Yes | – | – | – | – | – | – | Ability to neutralize RSV [12]: retain its ability to neutralize; Neutraliz by antibody ? ([4]; listed as Numax™): lost their ability to neutralize; Kd [13]: 0.004 nM; ka [13]: 4.70E+05; kd [13]: 1.88E−06; Neutraliz by antibody ? ([8]; listed as Numax™): did not knock out Numax™ neutralization
